Measured values reported in PMC8151400, “Evidence of the Involvement of a Plus-C Odorant-Binding Protein HparOBP14 in Host Plant Selection and Oviposition of the Scarab Beetle Holotrichia parallela” (Insects, 2021).
Like-named read-outs stand apart in the source and are kept apart here.

Assays:
[1] = biological target: recombinant HparOBP14 (Holotrichia parallela, UniProt A0A0G2YD86); assay: biochemical; assay type: binding
Procedure: To determine the affinity of HparOBP14 to odorant volatiles, the fluorescent displacement binding assay was carried out. A total of 27 compounds was selected, including 7 compounds from host plant (elm) volatiles, 11 compounds from organic fertilizer volatiles, and 9 compounds common in both of them. The odorant compounds (purity ≥95%) were purchased from Sigma-Aldrich. The fluorescent probe N-phenyl-1-naphthylamine (1-NPN) was dissolved in methanol (chromatographic grade) to a final concentration of 1 mM and used as the stock solution. The stock solution of the purified protein was diluted with Tris-HCl (50 mmol/L, pH 7.4) to a final concentration of 2 μM and added into a colorimetric plate cuvette. The 1-NPN stock solution was then successively added to the protein solution to the final concentrations ranging from 2 μM to 20 μM. The fluorescence changes were recorded to get K1-NPN, the dissociation constant of the complex HparOBP14/1-NPN.
The binding ability of HparOBP14 to the odorant compounds was determined by titrating the mixture of the protein and the 1-NPN (final concentration 2 μM of both) with each odorant compound at final concentrations ranging from 2 μM to 40 μM. The competitive dissociation constant was calculated from the corresponding IC50 values using the following equation: Ki = [IC50]/(1+ [1-NPN]/K1-NPN), where [1-NPN] is the free concentration of 1-NPN; K1-NPN is the dissociation constant of the complex HparOBP14/1-NPN.
The fluorescence changes during the binding of either 1-NPN or odorant compounds to the HparOBP14 protein were measured and recorded with the excitation wavelength of 337 nm and within a wavelength range of 350~550 nm by a 970CRT fluorescence spectrophotometer (Yidian Analytical Instrument Company, Shanghai, China).

[2] = test system: antennae of H. parallela female adults; assay: Electroantennogram (EAG) recording after dsRNA injection; assay type: in vivo, Holotrichia parallela; settings: 48 h after dsHparOBP14 injection; 20 μL of 1 μg/μL in paraffin oil
Procedure: (§1) The dsRNAs of HparOBP14 and GFP (GenBank number: ACY56286) (for primers, see Table S1) were synthesized using a T7 Ribo MAX™ Express RNAi System (Promega, Madison, WI, USA) according to the manufacturer’s instructions. The GFP-dsRNA was used as the negative control. Nine-to-eleven-day-old female adult beetles were injected with 2 μg dsRNA into the adult head with a 5 μL injection needle (7000 series syringes, Hamilton, USA), then kept under the same condition as 2.1 described above. The antennae were dissected at 24 h, 48 h, 72 h, and 96 h after injection, and the samples were stored at −80 °C for further RT-qPCR analyses.
The EAG recording was conducted on the adult antennae with the EAG micromanipulator MP-15 and analyzed with EAG-Pro (Syntech, Kirchzarten, Germany). Briefly, two ends of the antennae were set on electrode holders with a conductive adhesive (Spectra 360 electrode gel). An ashless filter paper (Hangzhou Special Paper Co., Ltd., Hangzhou, China) was cut into strips (3 cm × 0.5 cm). A 20 μL compound solution (concentration 1 μg/μL in paraffin oil) was applied onto the paper strip which was then placed in a Pasteur tube (17 cm × […]) and applied to the antennae by purified air at a flow rate of 1 L/min. The paraffin oil (20 μL) was used as a control. The stimulus recording time was 0.5 s and the interval between two stimulations was more than 1 min.

[3] = test system: female Holotrichia parallela adults; assay: Y-tube olfactometer behavioral bioassay; assay type: in vivo; settings: for change of attraction after injection of dsHparOBP14: dsHparOBP14-injected females; for behavioral response of uninjected female beetles: uninjected females, vs paraffin oil
Procedure: as §1
The Y-tube olfactometer mainly consisted of a Y-shaped glass tube (main arm, 30 cm; sidearm, 20 cm; inner diameter, 2.5 cm; side arm angle, 60 degrees), an air sampler, a drying tower, a gas scrubber, and a flow meter. Two gas-washing cylinders were successively connected with the flow meter, drying tower, air pump, and Y-shaped glass tube through rubber pipes. The testing compound (concentration 1 μg/μL in paraffin oil) and paraffin oil (as control) were taken and dropped respectively into a rubber septum (Pherobio Technology Co., Ltd., Beijing, China) and placed respectively into the side arms of the Y-tube. The flow rate of the atmospheric air sampler was adjusted to 500 mL/min.
A female adult beetle was introduced into the main arm at the downwind end of the Y-olfactometer. Each beetle was given 5 min to respond to the treatment, and the first choice that the beetle made for each of the lateral arms was recorded. The response was regarded as valid only if the beetle crawled more than 3 cm into a lateral arm and stayed for more than 1 min.
For each compound, more than 90 beetles were tested individually until 90 responsive beetles were obtained. Each individual beetle was tested only once, and the Y-olfactometer was replaced after every 10 beetles were tested to eliminate the odor effect. The number of individual beetles that selected the compound-treated arm of the Y-olfactometer was statistically compared with the number of beetles that selected the solvent-treated arm using a Chi-square goodness of fit test.

[4] = HparOBP14 and 1-NPN 2 µM each, titrated with compound 2–40 μM

Sequence of recombinant HparOBP14 (A0A0G2YD86 entry or part of it): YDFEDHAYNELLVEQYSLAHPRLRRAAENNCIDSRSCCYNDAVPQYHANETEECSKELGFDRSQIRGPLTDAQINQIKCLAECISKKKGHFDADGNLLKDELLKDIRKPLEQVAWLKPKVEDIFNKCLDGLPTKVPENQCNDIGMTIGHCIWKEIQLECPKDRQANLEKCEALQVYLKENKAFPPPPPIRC

Compound	IC50 [1]	Ki [1]	Int (%): relative fluorescence intensity of 1-NPN/HparOBP14 complex after the addition of testing compound [1, 4]	change of EAG responsive amplitude in dsHparOBP14-injected insects compared to uninjected control [2]	change of attraction after injection of dsHparOBP14 [3]	behavioral response of uninjected female beetles [3]	IC50 ([1]; HparOBP14 and 1-NPN 2 µM each, titrated with compound 2–40 μM, read-out: IC50)	Ki ([1]; calculated from IC50: Ki = [IC50]/(1+[1-NPN]/K1-NPN), read-out: Ki)
CC1=CCC2CC1C2(C)C (stereo not drawn) [α-pinene]	38.5 µM	32.8 µM	67.49%	decreased significantly	significantly increased	attracted		
C=O [formaldehyde]			68.91%	decreased significantly	no obvious change	attracted	34.6 µM	29.5 µM
